# Laboratory results as given in patent US12161647B2, “Treating hearing loss” (Massachusetts Eye and Ear Infirmary, priority 2012, dated 2024).
# Key:
# Type in all cases: in vivo, mouse
# deafened mature cochlea = assay: Hair cell and supporting cell counts in deafened mature cochlea after round window administration
# Description: (§1) 4-week-old mice were exposed free-field, awake and unrestrained, in a small reverberant chamber (22). Acoustic trauma was produced by a 2 h exposure to an 8-16 kHz octave band noise presented at 116 dB SPL. The exposure stimulus was generated by a custom white-noise source, filtered (Brickwall Filter with a 60 dB/octave slope), amplified (Crown power amplifier), and delivered (JBL compression driver) through an exponential horn fitted securely to a hole in the top of a reverberant box.
# (§2) 4-week-old mice weighing 12 to 16 g were used. Before surgery, the animals were anesthetized with ketamine (20 mg/kg, i.p.) and xylazine (100 mg/kg, i.p.), and an incision was made posterior to the pinna near the external meatus after local administration of lidocaine (1%). The otic bulla was opened to approach the round window niche. The end of a piece of PE 10 tubing (Becton Dickinson) was drawn to a fine tip in a flame and gently inserted into the round window niche. LY411575 was dissolved in DMSO and diluted 10-fold in polyethylene glycol 400 (Sigma) to a final concentration of 4 mM. This solution (total volume 1 μl) was injected into the round window niche of the left ear. Polyethylene glycol 400 with 10% DMSO was injected into the right ear as a control. The solution was administered for 2 min. This approach is presently used clinically (e.g. transtympanic injection of steroids for sudden hearing loss and gentamicin for severe balance disorders) and has the advantage of sparing the […] but still taking advantage of the local route provided by the round window membrane for delivery of drug into the inner ear (50). Gelatin was placed on the niche to maintain the solution, and the wound was closed.
# For collection of mature mouse cochleae, after being deeply anesthetized with ketamine and xylazine, the mice were transcardially perfused with 0.01 M phosphate buffer (pH 7.4) containing 8.6% sucrose, followed by fixative consisting of freshly depolymerized 4% paraformaldehyde in 0.1 M phosphate buffer (pH 7.4). After decapitation, the temporal bones were removed and immediately placed in the same fixative at 4° C. Small openings were made at the round window, oval window, and apex of the cochlea. […] Primary antibodies were detected with secondary antibodies conjugated with Alexa 488, 568, and 647 (Molecular Probes) and viewed by confocal fluorescence microscopy (TCS SP5, Leica). […]
# Cell counting for spheres was performed with MetaMorph software. The cell number was determined from DAPI- or Hoechst-positive nuclei. […] For explants, inner hair cells, outer hair cells, and supporting cells in the outer hair cell region were counted on cochlear whole mounts. […]
# Hes5 mRNA = assay: qRT-PCR of Hes5 in deafened mature cochlea after round window administration
# Description: as §1
# 4-week-old mice weighing 12 to 16 g were used. Before surgery, the animals were anesthetized with ketamine (20 mg/kg, i.p.) and xylazine (100 mg/kg, i.p.), and an incision was made posterior to the pinna near the external meatus after local administration of lidocaine (1%). […]
# The organs of Corti were dissected in HBSS (Invitrogen) and stored in RNAlater (Ambion) at −80° C. until further use. […] Samples were analyzed in 96 wells in triplicate by qPCR (Applied Biosystems 7900HT), and PCR thermal cycling conditions were as follows: initial denaturation at 95° C. for 2 min, denaturation at 95° C. for 15 s, annealing/extension at 60° C. for 1 min for 45 cycles. […] Relative gene expression was analyzed by using the ΔΔCT method. Gene expression was calculated relative to 18S RNA, and the amount of cDNA applied was adjusted so that the Ct value for 18S RNA was between 8 and 11. […]
# deafened ears = assay: ABR and DPOAE in deafened ears after round window administration
# Description: as §1, §2
# Auditory brain stem responses (51, 52) were measured in each animal at 7 log-spaced frequencies (half-octave steps from 5.6 to 45.2 kHz) before and 1 d after noise exposure, and 1-week, 1-month, and 3-months after surgery. Mice were anesthetized with ketamine (100 mg/kg i.p.) and xylazine (20 mg/kg i.p.). Needle electrodes were inserted at vertex and pinna, with a ground near the tail. ABRs were evoked with 5-ms tone pips (0.5-ms rise-fall with a cos^2 onset envelope delivered at 35/s). The response was amplified, filtered and averaged in a LabVIEW-driven data-acquisition system. Sound level was raised in 5 dB steps from ≥10 dB below threshold <80 dB SPL. At each sound level, 1024 responses were averaged (with stimulus polarity alternated), using an “artifact reject,” whereby response waveforms were discarded when peak-to-peak response amplitude exceeded 15 μV. […] For amplitude versus level functions, the wave I peak was identified by visual inspection at each sound level and the peak-to-peak amplitude computed.
structure (smiles),measurement,setting,value
"C[C@H](NC(=O)[C@@H](O)c1cc(F)cc(F)c1)C(=O)N[C@@H]1C(=O)N(C)c2ccccc2-c2ccccc21 [LY411575, N-2((2S)-2-(3,5-difluorophenyl)-2-hydroxyethanoyl)-N1-((7S)-5-methyl-6-oxo-6,7-dihydro-5H-dibenzo[b,d]azepin-7-yl)-l-alaninamide]",numbers of inner hair cells,"deafened mature cochlea; 3 months, treated group",no significant changes
same,number of outer hair cells compared to carrier-treated contralateral ear,"deafened mature cochlea; 3 months, 8-16 kHz, p<0.05",increased
same,number of supporting cells in the outer hair cell region compared to carrier-treated ear,"deafened mature cochlea; 3 months, 8 and 11.3 kHz areas, p<0.05",decreased significantly
same,outer hair cells in the most basal regions,"deafened mature cochlea; above 22 kHz, with and without LY411575",completely absent
same,noise-induced Hes5 mRNA induction,"Hes5 mRNA; round window niche, 4 mM 1 μl, 1 d after noise, at 1 d, p<0.01 vs control cochlea",completely blocked
same,Hes5 expression level,Hes5 mRNA; three days after LY411575 treatment,unchanged from the control cochlea
same,ABR wave I amplitudes,"deafened ears; 8, 11.33 and 16 kHz, 3 months",increased
same,ABR threshold recoveries,"deafened ears; 8, 11.33 and 16 kHz, 3 months after treatment vs 1 d after noise",significantly greater than control
same,sound level at which the ABR peak could first be detected,"deafened ears; 8 kHz, 3 months after treatment, example mouse, control side 75 dB",65 dB
same,ABR threshold recoveries at high frequencies,"deafened ears; frequencies above 22.65 kHz, either ear",No threshold recoveries
same,recoveries above the noise floor of DPOAE,"deafened ears; mouse, in vivo",no recoveries
